Among the test systems are HCT-15 colon; OVCAR-4 ovarian; SN12C renal; NCI-H460 lung; SK-OV-3 ovarian; SF-539 CNS; MALME-3M melanoma; SR leukemia; HCT-116 colon; NCI/ADR-RES ovarian.
Common to all, as to assay: NCI tumour cell line growth inhibition, 48 h

The source of these data is PubChem BioAssay (NCI).

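A five-concentration, 48-hour dose response in 96-well plates underlies each endpoint, interpolated linearly between surrounding concentrations. GI50 = concentration required for 50% inhibition of growth. TGI denotes the concentration required for complete inhibition of growth.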

As for `C[C@]12CCC3[C@@H](C[C@@H]4SC(Nc5ccccc5)=N[C@@]45CC(=O)CC[C@]35C)[C@@H]1CCC2=O` (some centres undefined), the GI50 in the assay with HCT-15 colon was 2.53 µM; with OVCAR-4 ovarian, 18.9 µM; in the assay on SN12C renal it was 3.81 µM; with NCI-H460 lung, 4.65 µM; in the assay on SK-OV-3 ovarian it was 34 µM; in the assay on SF-539 CNS, 3.04 µM. For the same molecule, the GI50 in the assay on MALME-3M melanoma is 21.2 µM; with SR leukemia it was 2.58 µM; in the assay with HCT-116 colon it was 1.91 µM; with NCI/ADR-RES ovarian, 6.34 µM. Also, the TGI with HCT-15 colon is 9.71 µM; in the assay with OVCAR-4 ovarian it was above 100 µM; with SN12C renal it was 25.3 µM; in the assay with NCI-H460 lung it was 27.9 µM; in the assay on SK-OV-3 ovarian it was above 100 µM; in the assay with SF-539 CNS, 13.3 µM. Moreover, the TGI in the assay with MALME-3M melanoma is above 100 µM; with SR leukemia it was above 100 µM; in the assay with HCT-116 colon it was 4.16 µM; in the assay on NCI/ADR-RES ovarian, above 100 µM.
Consider `Cc1ccc2c(c1)nc(C(=O)c1ccco1)c(C(F)(F)F)[n+]2[O-]`, for which the GI50 is above 100 µM with HCT-15 colon; 76.3 µM with OVCAR-4 ovarian; above 100 µM with SN12C renal; above 100 µM with NCI-H460 lung; above 100 µM with SK-OV-3 ovarian; above 100 µM in the assay with SF-539 CNS. The GI50 in the assay with MALME-3M melanoma is above 100 µM; with SR leukemia it was 64.4 µM; with HCT-116 colon, above 100 µM; with NCI/ADR-RES ovarian it was 57 µM. Further, the TGI in the assay with HCT-15 colon, with OVCAR-4 ovarian, in the assay with SN12C renal, in the assay on NCI-H460 lung, in the assay with SK-OV-3 ovarian and in the assay on SF-539 CNS was above 100 µM in each case. In addition, the TGI in the assay with MALME-3M melanoma, in the assay on SR leukemia, in the assay with HCT-116 colon and in the assay on NCI/ADR-RES ovarian was above 100 µM each time.
For `CSc1nc2c(c(=O)[nH]1)N=C1c3ccccc3C(=O)C1C(c1ccc(F)cc1)N2` (centres undefined), the GI50 with HCT-15 colon is 4.57 µM; in the assay on OVCAR-4 ovarian it was 15.4 µM; in the assay with SN12C renal, 28.4 µM; with NCI-H460 lung, 5.1 µM; with SK-OV-3 ovarian it was 14.1 µM; in the assay on SF-539 CNS, 8.9 µM. The GI50 is 19.6 µM in the assay with MALME-3M melanoma, 6.31 µM in the assay with SR leukemia, 7.23 µM in the assay with HCT-116 colon and 6.42 µM in the assay with NCI/ADR-RES ovarian. Further, the TGI was above 100 µM in the assay with HCT-15 colon; 67 µM in the assay with OVCAR-4 ovarian; above 100 µM in the assay on SN12C renal; 38.7 µM in the assay with NCI-H460 lung; 50.4 µM with SK-OV-3 ovarian; 29.4 µM with SF-539 CNS. The TGI was above 100 µM in the assay on MALME-3M melanoma, above 100 µM in the assay with SR leukemia, 19.9 µM in the assay on HCT-116 colon and 33.1 µM in the assay with NCI/ADR-RES ovarian.
Consider `Cc1ccc(C(CN(C)C)C(=O)c2ccccc2)cc1` (centres undefined), for which the GI50 with HCT-15 colon is 1.7 µM; in the assay on OVCAR-4 ovarian, 2.76 µM; in the assay with SN12C renal, 3.59 µM; with NCI-H460 lung, 7.38 µM; in the assay on SK-OV-3 ovarian it was 14.7 µM; in the assay on SF-539 CNS, 3.09 µM. Also, the GI50 in the assay with MALME-3M melanoma is 2.74 µM; with SR leukemia it was 1.03 µM; in the assay on HCT-116 colon it was 0.514 µM; in the assay on NCI/ADR-RES ovarian it was 2.89 µM. Also, the TGI with HCT-15 colon worked out at 4.21 µM; in the assay with OVCAR-4 ovarian, 13 µM; with SN12C renal, 11.5 µM; in the assay with NCI-H460 lung, 21.9 µM; with SK-OV-3 ovarian it was 31.3 µM; with SF-539 CNS it was 10.7 µM. Besides, the TGI in the assay on MALME-3M melanoma came out at 8.89 µM; in the assay with SR leukemia, 6.47 µM; in the assay on HCT-116 colon it was 1.83 µM; with NCI/ADR-RES ovarian it was 12.6 µM.
As to `C=C1C(=O)O[C@H]2[C@H]1CC/C(COC(=O)NCc1cc3ccccc3[nH]1)=C\CC[C@@]1(C)O[C@@H]21`, the GI50 was 1.54 µM with HCT-15 colon; 2.2 µM in the assay with OVCAR-4 ovarian; 1.45 µM in the assay with SN12C renal; 3.78 µM in the assay on NCI-H460 lung; 13.8 µM in the assay on SK-OV-3 ovarian; 1.73 µM in the assay with SF-539 CNS. The GI50 with MALME-3M melanoma is 1.81 µM; with SR leukemia, 2.32 µM; in the assay on HCT-116 colon it was 1.37 µM; in the assay on NCI/ADR-RES ovarian, 2.52 µM. Moreover, the TGI amounted to 3.32 µM in the assay on HCT-15 colon; 7.63 µM in the assay with OVCAR-4 ovarian; 3.17 µM in the assay with SN12C renal; 14.6 µM with NCI-H460 lung; 26.8 µM with SK-OV-3 ovarian; 3.26 µM in the assay on SF-539 CNS. Further, the TGI in the assay on MALME-3M melanoma was determined as 3.58 µM; in the assay with SR leukemia, 8.75 µM; in the assay on HCT-116 colon, 2.77 µM; with NCI/ADR-RES ovarian it was 8.06 µM.
In the case of `Cc1c(N=Nc2ccc([N+](=O)[O-])cc2)nc2scc(-c3ccccc3)n12`, the TGI was above 92.2 µM in the assay on HCT-15 colon; above 100 µM with OVCAR-4 ovarian; above 100 µM in the assay with SN12C renal; above 100 µM in the assay on NCI-H460 lung; above 100 µM with SK-OV-3 ovarian; above 100 µM with SF-539 CNS. Besides, the TGI in the assay with MALME-3M melanoma is above 100 µM; with SR leukemia, 56.4 µM; in the assay on HCT-116 colon it was above 100 µM; in the assay on NCI/ADR-RES ovarian, above 100 µM.
Regarding `CC[C@]1(O)CC2CN(CCc3c([nH]c4ccccc34)[C@@](C(=O)OC)(c3cc4c(cc3OC)N(C)[C@H]3[C@@](O)(C(=O)OC)[C@H](OC(C)=O)[C@]5(CC)C=CCN6CC[C@]43[C@@H]65)C2)C1` (some centres undefined), the GI50 was 0.0588 µM in the assay with HCT-15 colon; 0.0303 µM in the assay on OVCAR-4 ovarian; below 0.005 µM in the assay with SN12C renal; below 0.005 µM in the assay with NCI-H460 lung; below 0.005 µM in the assay on SK-OV-3 ovarian; below 0.005 µM in the assay with SF-539 CNS. For the same molecule, the GI50 is below 0.005 µM in the assay on MALME-3M melanoma, below 0.005 µM in the assay on SR leukemia, below 0.005 µM in the assay with HCT-116 colon and 0.0912 µM in the assay with NCI/ADR-RES ovarian. Further, the TGI with HCT-15 colon is above 21.3 µM; in the assay with OVCAR-4 ovarian, above 50 µM; with SN12C renal, above 37.3 µM; with NCI-H460 lung, 5.8 µM; with SK-OV-3 ovarian, 0.00977 µM; with SF-539 CNS it was 0.293 µM. Moreover, the TGI in the assay with MALME-3M melanoma stood at 11.8 µM; in the assay on HCT-116 colon it was 0.269 µM; with NCI/ADR-RES ovarian, 1.06 µM.
Take `O=C1CCC(Cc2ccc(Cl)cc2Cl)C(=O)N1` (centres undefined): the TGI in the assay on HCT-15 colon, with OVCAR-4 ovarian, in the assay on SN12C renal, with NCI-H460 lung, in the assay with SK-OV-3 ovarian and with SF-539 CNS was above 100 µM each time. Further, the TGI in the assay with MALME-3M melanoma, with SR leukemia, in the assay on HCT-116 colon and with NCI/ADR-RES ovarian was above 100 µM in each case.
